Assay results from PubChem BioAssay (NCI).
Values joined by “and” are separate entries in the source; they are usually repeats but may differ in a detail not shown here. Equal entries are not always repeated.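 Interpolation was linear, between the two tested concentrations surrounding the appropriate level; five concentrations were tested over 48 hours in 96-well plates. GI50 = concentration required for 50% inhibition of growth. At the TGI there is no net growth.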

Columns and labels:
Test in all cases: DTP human tumour cell line panel, 48 h
CCRF-CEM leukemia = tested on: CCRF-CEM leukemia
K-562 leukemia = tested on: K-562 leukemia
MDA-MB-231 breast = tested on: MDA-MB-231 breast
MOLT-4 leukemia = tested on: MOLT-4 leukemia
NCI-H522 lung = tested on: NCI-H522 lung
PC-3 prostate = tested on: PC-3 prostate
RXF 393 renal = tested on: RXF 393 renal
SF-268 CNS = tested on: SF-268 CNS
SNB-19 CNS = tested on: SNB-19 CNS
UACC-62 melanoma = tested on: UACC-62 melanoma

Compound | TGI (CCRF-CEM leukemia) | TGI (K-562 leukemia) [µM] | TGI (MDA-MB-231 breast) | TGI (MOLT-4 leukemia) | TGI (NCI-H522 lung) | TGI (PC-3 prostate) | TGI (RXF 393 renal) | TGI (SF-268 CNS) | TGI (SNB-19 CNS) | TGI (UACC-62 melanoma) | GI50 (CCRF-CEM leukemia) | GI50 (K-562 leukemia) [µM] | GI50 (MDA-MB-231 breast) [µM] | GI50 (MOLT-4 leukemia) [µM] | GI50 (NCI-H522 lung) | GI50 (PC-3 prostate) [µM] | GI50 (SF-268 CNS) [µM] | GI50 (UACC-62 melanoma) [µM] | GI50 (RXF 393 renal) [µM] | GI50 (SNB-19 CNS)
CN(C)C(=S)SCC(N)=O | > 100 µM | > 100 | > 100 µM | > 100 µM | > 100 µM | > 100 µM | > 100 µM | > 100 µM | > 100 µM | > 100 µM | – | – | – | – | – | – | – | – | – | –
O=C1C=C(OCCCl)C(=O)c2c(O)ccc(O)c21 | 3.5 µM | 3.11 | 3.27 µM and 8.96 µM | 6.5 µM and 1.58 µM | 4.44 µM and 3.14 µM | 4.32 µM and 10.1 µM | 3.38 µM and 3.96 µM | 2.6 µM and 15.3 µM | 2.56 µM | 0.519 µM and 1.61 µM | 1.32 µM | 1.17 | 3.29 | 0.368 | 1.57 µM | 2.67 | 3.98 | 0.386 | – | –
O=C1NC(SCc2ccc(F)cc2)=N/C1=C/c1cccc(OCc2ccc(Cl)cc2)c1 | > 100 µM | > 100 | > 100 µM | > 100 µM | > 100 µM | > 100 µM | 48.9 µM | > 100 µM | > 100 µM | > 100 µM | 64.2 µM | 28.8 | 24.6 | 31.6 | 57.3 µM | > 100 | > 100 | > 100 | 9.22 | 21.7 µM
Nc1cc(-c2ccccc2)n(C(=O)Nc2ccc(Oc3ccccc3)cc2)n1 | 93.3 µM | > 100 | > 100 µM | > 100 µM | > 100 µM | > 100 µM | 68.3 µM | > 100 µM | > 100 µM | > 100 µM | 18.9 µM | > 100 | 27.3 | 50.5 | 54.7 µM | > 100 | 30.8 | > 100 | 23 | 91.5 µM
CNc1ncc2cc(Oc3ccc(F)cc3F)c(=O)n(C)c2n1 | > 25 µM | > 25 | > 25 µM | > 25 µM | > 25 µM | > 25 µM | > 25 µM | > 25 µM | > 25 µM | > 25 µM | > 25 µM | > 25 | > 24.1 | > 25 | > 25 µM | > 25 | > 25 | > 25 | > 19.3 | > 25 µM
Nc1ccccc1C#C/C=C\C#Cc1ccccc1F | 7.14 µM | > 100 | 25.4 µM | > 100 µM | 23.5 µM | > 100 µM | 57.5 µM | 23.3 µM | – | 21 µM | 0.729 µM | 3.38 | 10.1 | 2.13 | 6.74 µM | 6.8 | 4.23 | 7.72 | 17.8 | –
O=C(NN1C(=O)CSC12CCC(c1ccccc1)CC2)c1[nH]c2ccc(F)cc2c1-c1ccccc1 (configuration not stated) | 41.1 µM | 62.9 | 31.6 µM | 33.7 µM | 28.2 µM | 39.6 µM | 29.5 µM | 48.4 µM | > 100 µM | 23.8 µM | 19.4 µM | 23.7 | 16.9 | 12.2 | 14.3 µM | 18.1 | 20 | 10.8 | 15.3 | 29.8 µM
COc1cc2c3cc1Oc1c(OC)c(OC)cc4c1C(Cc1ccc(cc1)Oc1cc(ccc1O)CC3N(C)CC2)N(C)CC4 (configuration not stated) | 58.3 µM and 24.7 µM | – | 24.5 µM | 30.8 µM and 36.8 µM | 14.2 µM and 20.5 µM | 28.4 µM | 5.69 µM and 4.03 µM | 44.6 µM and 24.7 µM | 72.7 µM and 24.7 µM | 28.5 µM and 21.7 µM | 6.96 µM and 2.78 µM | – | – | – | 1.57 µM and 4.86 µM | – | – | – | – | 28.6 µM and 12 µM
NCCSC(C[N+](=O)[O-])c1ccccc1Cl (configuration not stated) | > 86.7 µM | > 23.7 | 25.8 µM | > 25.8 µM | > 56.1 µM | > 32.7 µM | 11.1 µM | 8.53 µM | 11.5 µM | 26.3 µM | 3.8 µM | 2.96 | 12 | 10.2 | 24.9 µM | 4.19 | 2.79 | 13.2 | 2.27 | 3.38 µM
CN(C)N=Nc1nn(C(=O)Nc2ccc(Cc3ccccc3)cc2)c2ccccc12 | > 100 µM | > 100 | > 100 µM | > 100 µM | > 100 µM | > 100 µM | > 100 µM | > 100 µM | > 100 µM | 1.65 µM | 4.42 µM | 0.0373 | 1.37 | 7.47 | 1.9 µM | 4.65 | 17.1 | 0.0385 | > 28.9 | > 100 µM
O=C1NC(c2ccccc2)N=C2Oc3ccccc3C=C12 (configuration not stated) | 2.65 µM | > 100 | > 31.6 µM | > 100 µM | > 100 µM | > 100 µM | > 100 µM | > 84.7 µM | > 100 µM | > 100 µM | – | – | – | – | – | – | – | – | – | –
CCc1nc(N)nc(N)c1C#CC(C)c1cc(-c2ccnc(C)c2)c2oc(C)nc2c1 (configuration not stated) | 29.9 µM | 31.3 | 16.9 µM | 8.81 µM | 9.66 µM | 12.1 µM | 2.71 µM | 6.02 µM | 12.1 µM | 3.23 µM | < 0.01 µM | < 0.01 | 0.527 | < 0.01 | 0.0222 µM | < 0.01 | < 0.01 | < 0.01 | 0.0395 | < 0.0114 µM
Oc1ccc(O)c2c1C1(Cl)C(Cl)=C(Cl)C2(Cl)C1(Cl)Cl | > 100 µM | 93 | 23 µM | 19 µM | 12.1 µM | 16.4 µM | 11.2 µM | 15.5 µM | 27.3 µM | 19.5 µM | 4.14 µM | 2.94 | 4.65 | 2.87 | 3.55 µM | 3.14 | 3.31 | 4.96 | 3.31 | 9.45 µM
COc1cc(-c2oc3c(OC)c(O)cc(O)c3c(=O)c2OC)ccc1O | 24.9 µM | > 100 | > 100 µM | 29.4 µM | > 37.2 µM | > 74.9 µM | 51.5 µM | > 23.3 µM | > 100 µM | 24.6 µM | – | – | – | – | – | – | – | – | – | –
Cc1ccc([N+](=O)[O-])c2c(NCCC[N+](C)(C)[O-])ccnc12 | > 100 µM | > 100 | > 100 µM | > 100 µM | 32.6 µM | > 100 µM | > 100 µM | > 100 µM | > 100 µM | – | – | – | – | – | – | – | – | – | – | –
